Columns and labels:
[1] = system: SMN2 minigene (full length SMN2 minigene mRNA containing SMN2 exon 7); experiment: SMN2 minigene mRNA splicing RT-qPCR assay in cultured cells; type: cell-based, human; conditions: Homo sapiens, HEK293-H; HEK293H cells stably transfected with SMN2-A minigene; 24 hours; 7-point concentration curve; 1.5-fold relative to vehicle-treated cells; read-out: EC1.5x for production of full length SMN2 mRNA
Method in brief: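 HEK293H cells stably carrying the SMN2-A minigene treated 24 h at 37° C with compound (DMSO, 200× stock), then lysed. Multiplex RT-qPCR (SMN primers 0.4 μM final; 40 cycles) measures full-length exon 7-containing minigene mRNA, normalized to GAPDH and to vehicle; EC1.5x derived and binned by stars.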

Smn protein = Smn protein assay in cultured cells (SMN HTRF); type: cell-based, human; conditions: 48 hours; for EC1.5x (concentration giving 1.5-fold Smn protein increase): SMA Type 1 patient fibroblast cells (GM03813), 7-point concentration curve, SMN HTRF, concentration producing 1.5 times Smn protein vs DMSO vehicle control, read-out: EC1.5x for Smn protein expression; for maximum fold (Fold) increase of Smn protein: SMA patient fibroblast cells, 7-point concentration data, fold increase relative to vehicle control (SMN HTRF)
Method in brief: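 Lysates in RIPA with protease inhibitors are incubated overnight at room temperature with HTRF anti-SMN antibodies. EC1.5x is derived from fold increase in ΔF over vehicle.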

Row | melting point | SMILES | EC (1.5-fold) [1] | EC1.5x (concentration giving 1.5-fold Smn protein increase) (Smn protein) | maximum fold (Fold) increase of Smn protein (Smn protein)
1 | 178 to 182 °C | O=c1oc2cc(N3CC4CCC3CN4)ccc2cc1-c1cn2cccc(Cl)c2n1 (stereo not shown) [Compound 527, 3-(8-chloroimidazo[1,2-a]pyridin-2-yl)-7-(2,5-diazabicyclo[2.2.2]oct-2-yl)-2H-chromen-2-one] | 0.1 to 0.3 µM | < 300 nM | **** (fold increase between >1.5 and ≤1.65)
2 | 182 to 185 °C | CC1(C)CN(c2ccc3cc(-c4cn5cc(F)ccc5n4)c(=O)oc3c2)CCN1 [Compound 508, 7-(3,3-dimethylpiperazin-1-yl)-3-(6-fluoroimidazo[1,2-a]pyridin-2-yl)-2H-chromen-2-one] | 0.3 to 1 µM |  | ** (fold increase between >1.2 and ≤1.35)
3 | 285 to 287 °C | C[C@@H]1CN(c2ccc3cc(-c4cn5cccnc5n4)c(=O)oc3c2)CCN1 [Compound 169, 3-(imidazo[1,2-a]pyrimidin-2-yl)-7-[(3R)-3-methylpiperazin-1-yl]-2H-chromen-2-one] | 0.3 to 1 µM | 1000 to 3000 nM | *** (fold increase between >1.35 and ≤1.5)
4 | 240 to 242 °C | O=c1oc2cc(N3CCNCC3)ccc2cc1-c1cn2cc(Cl)sc2n1 [Compound 494, 3-(2-chloroimidazo[2,1-b][1,3]thiazol-6-yl)-7-(piperazin-1-yl)-2H-chromen-2-one] | 0.1 to 0.3 µM |  | * (maximum fold increase of ≤1.2)
5 | 251 to 259 °C | Cc1cc([N+](=O)[O-])c2nc(-c3cc4ccc(N5CCN[C@@H](C)C5)cc4oc3=O)cn2c1 [Compound 703, 3-(6-methyl-8-nitroimidazo[1,2-a]pyridin-2-yl)-7-[(3S)-3-methylpiperazin-1-yl]-2H-chromen-2-one] | 1 to 3 µM |  | ** (fold increase between >1.2 and ≤1.35)
6 | 166 to 170 °C | COc1cc(-c2cc3ccc(N4CCN[C@@H](C)C4)cc3oc2=O)ccc1C [Compound 575, 3-(3-methoxy-4-methylphenyl)-7-[(3S)-3-methylpiperazin-1-yl]-2H-chromen-2-one] | 0.3 to 1 µM |  | * (maximum fold increase of ≤1.2)
7 | 300 to 302 °C | CCN1CCN(c2ccc3cc(-c4cn5cccnc5n4)c(=O)oc3c2)CC1 [Compound 108, 7-(4-ethylpiperazin-1-yl)-3-(imidazo[1,2-a]pyrimidin-2-yl)-2H-chromen-2-one] | 1 to 3 µM | 300 to 1000 nM | **** (fold increase between >1.5 and ≤1.65)
8 | 183 to 188 °C | CCc1ccn2cc(-c3cc4ccc(N5C[C@@H](C)N[C@@H](C)C5)cc4oc3=O)nc2c1 [Compound 289, 7-[(3R,5S)-3,5-dimethylpiperazin-1-yl]-3-(7-ethylimidazo[1,2-a]pyridin-2-yl)-2H-chromen-2-one] | 0.3 to 1 µM |  | * (maximum fold increase of ≤1.2)
9 | > 310 °C | Cl.O=c1oc2cc(OC3CCNCC3)ccc2cc1-c1cn2cccnc2n1 [Compound 197, 3-(imidazo[1,2-a]pyrimidin-2-yl)-7-(piperidin-4-yloxy)-2H-chromen-2-one hydrochloride] | 0.3 to 1 µM |  | ** (fold increase between >1.2 and ≤1.35)

The remaining lines, values behind:

Row | SMILES | melting point | EC (1.5-fold) [1] | EC1.5x (concentration giving 1.5-fold Smn protein increase) (Smn protein) | maximum fold (Fold) increase of Smn protein (Smn protein)
10 | CCN1CCN(c2ccc3cc(-c4cccc(OC)n4)c(=O)oc3c2)CC1 [Compound 360, 7-(4-ethylpiperazin-1-yl)-3-(6-methoxypyridin-2-yl)-2H-chromen-2-one] | 145 to 147 °C | 1 to 3 µM |  | * (maximum fold increase of ≤1.2)
11 | Cc1ccn2cc(-c3cc4ccc(N5CCCN(C)CC5)cc4oc3=O)nc2c1 [Compound 217, 7-(4-methyl-1,4-diazepan-1-yl)-3-(7-methylimidazo[1,2-a]pyridin-2-yl)-2H-chromen-2-one] | 200 to 206 °C | 0.3 to 1 µM |  | *** (fold increase between >1.35 and ≤1.5)
12 | Cc1cn2cc(-c3cc4ccc(N5C[C@@H]6[C@H](C5)[C@H]6N(C)C)cc4oc3=O)nc2c(C)n1 [Compound 761, 7-[(1R,5S,6s)-6-(dimethylamino)-3-azabicyclo[3.1.0]hex-3-yl]-3-(6,8-dimethylimidazo[1,2-a]pyrazin-2-yl)-2H-chromen-2-one] | 271 to 274 °C | < 0.1 µM | < 300 nM | **** (fold increase between >1.5 and ≤1.65)
13 | Cc1cn2cc(-c3cc4ccc(N5C[C@@H]6CCCN(CCO)[C@@H]6C5)cc4oc3=O)nc2c(C)n1 [Compound 796, 3-(6,8-dimethylimidazo[1,2-a]pyrazin-2-yl)-7-[(4aS,7aS)-1-(2-hydroxyethyl)octahydro-6H-pyrrolo[3,4-b]pyridin-6-yl]-2H-chromen-2-one] | 200 to 210 °C | < 0.1 µM | 300 to 1000 nM | **** (fold increase between >1.5 and ≤1.65)
14 | Cc1cn2cc(-c3cc4ccc(CCCN(C)CCO)cc4oc3=O)nc2c(C)n1 [Compound 880, 3-(6,8-dimethylimidazo[1,2-a]pyrazin-2-yl)-7-{3-[(2-hydroxyethyl)(methyl)amino]propyl}-2H-chromen-2-one] | 173 to 176 °C | < 0.1 µM | < 300 nM | **** (fold increase between >1.5 and ≤1.65)
15 | O=c1oc2cc(N3CCNCC3)ccc2cc1-c1cn2cc(C3CC3)cc(F)c2n1 [Compound 500, 3-(6-cyclopropyl-8-fluoroimidazo[1,2-a]pyridin-2-yl)-7-(piperazin-1-yl)-2H-chromen-2-one] | 261 to 271 °C | 0.3 to 1 µM |  | * (maximum fold increase of ≤1.2)
16 | CN1CCCN(c2ccc3cc(-c4nc(C(F)(F)F)cs4)c(=O)oc3c2)CC1 [Compound 238, 7-(4-methyl-1,4-diazepan-1-yl)-3-[4-(trifluoromethyl)-1,3-thiazol-2-yl]-2H-chromen-2-one] | 218 to 225 °C | 1 to 3 µM |  | * (maximum fold increase of ≤1.2)
17 | Cc1cn2cc(-c3cc4ccc(C5CCN(CCO)CC5)cc4oc3=O)nc2cn1 [Compound 843, 7-[1-(2-hydroxyethyl)piperidin-4-yl]-3-(6-methylimidazo[1,2-a]pyrazin-2-yl)-2H-chromen-2-one] | 230 to 236 °C | < 0.1 µM | < 300 nM | **** (fold increase between >1.5 and ≤1.65)
18 | Cc1cn2cc(-c3cc4ccc(CCCNC5CCOC5)cc4oc3=O)nc2c(C)n1 (stereo not shown) [Compound 939, 3-(6,8-dimethylimidazo[1,2-a]pyrazin-2-yl)-7-[3-(tetrahydrofuran-3-ylamino)propyl]-2H-chromen-2-one] | 177 to 180 °C | < 0.1 µM | < 300 nM | ***** (fold increase >1.65)
19 | CC(C)NCc1ccc2cc(-c3nc4ccccc4s3)c(=O)oc2c1 [Compound 8, 3-(1,3-benzothiazol-2-yl)-7-[(propan-2-ylamino)methyl]-2H-chromen-2-one] | 164 to 168 °C | 1 to 3 µM |  | * (maximum fold increase of ≤1.2)
20 | CCN(CC)Cc1ccc2cc(-c3nc4c(Cl)cccc4s3)c(=O)oc2c1 [Compound 58, 3-(4-chloro-1,3-benzothiazol-2-yl)-7-[(diethylamino)methyl]-2H-chromen-2-one] | 147 to 151 °C | 1 to 3 µM | 300 to 1000 nM | **** (fold increase between >1.5 and ≤1.65)
21 | CN(C)Cc1ccc2cc(-c3nc4c(Cl)cccc4s3)c(=O)oc2c1 [Cpd 14, 3-(4-chloro-1,3-benzothiazol-2-yl)-7-[(dimethylamino)methyl]-2H-chromen-2-one] | 179 to 182 °C | 0.3 to 1 µM |  | *** (fold increase between >1.35 and ≤1.5)
22 | O=c1oc2cc(CN3CCC(O)CC3)ccc2cc1-c1cn2ccsc2n1 [Compound 346, 7-[(4-hydroxypiperidin-1-yl)methyl]-3-(imidazo[2,1-b][1,3]thiazol-6-yl)-2H-chromen-2-one] | 248 to 252 °C | 3 to 30 µM |  | ** (fold increase between >1.2 and ≤1.35)
23 | CCN(CC)CCc1ccc2cc(-c3cn4cc(C)nc(C)c4n3)c(=O)oc2c1 [Compound 968, 7-[2-(diethylamino)ethyl]-3-(6,8-dimethylimidazo[1,2-a]pyrazin-2-yl)-2H-chromen-2-one] | 190 to 193 °C | < 0.1 µM | < 300 nM | ***** (fold increase >1.65)
24 | O=c1oc2cc(N3CCNCC3)ccc2cc1-c1cccnc1C(F)(F)F [Cpd 124, 7-(piperazin-1-yl)-3-[2-(trifluoromethyl)pyridin-3-yl]-2H-chromen-2-one] | 197 to 200 °C | 0.3 to 1 µM |  | ** (fold increase between >1.2 and ≤1.35)

— patent publication USRE47689E1, “Compounds for treating spinal muscular atrophy” (PTC Therapeutics, Inc., priority 2011, dated 2019)
